The assay deals with HEK293 cells. Put plainly: HEK293 VLCFA-LPC IC50 determination (13C-labeled C26:0 LPC by UHPLC/MS). It counts as cell-based, human. Conditions: Homo sapiens, HEK293, HEK293 cells; average of one or more replicates; read-out: Average HEK293 IC50. The procedure, abridged:
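Suspension HEK293 cells (final 0.5 million/mL after mixing with equal volume) incubated 48 hours with compound plus 13C-acetate (1.0 mg/mL in added media), shaking at 37° C. Lipids extracted with hexane/isopropanol or methanol, C13:0 LPC standard. UHPLC/MS of 13C-labeled C26:0 LPC (638.500/104.100 m/z); IC50 by four-parameter fit.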

Structures are written as SMILES. Some results are limits rather than exact numbers.

In the case of `Cn1ncnc1-n1ccc(NC(=O)C2(c3ccccc3F)CC2)n1` [Compound 415, 1-(2-fluorophenyl)-N-[1-(2-methyl-1,2,4-triazol-3-yl)pyrazol-3-yl]cyclopropanecarboxamide], the concentration for half-maximal inhibition (IC50) (commonly the concentration needed to halve the response being measured) came to 90 nM.

In the case of `Cn1nccc1-n1ccc(NC(=O)C2(c3ccccc3F)CC2)n1` [Compound 417, 1-(2-fluorophenyl)-N-[1-(2-methylpyrazol-3-yl)pyrazol-3-yl]cyclopropanecarboxamide], the IC50 is 290 nM.

Turning to `O=C(Nc1ccn(-c2cccc(Cl)c2)n1)C1(c2ncccc2F)CC1` [Compound 418, N-(1-(3-chlorophenyl)-1H-pyrazol-3-yl)-1-(3-fluoropyridin-2-yl)cyclopropane-1-carboxamide], the concentration for half-maximal inhibition (IC50) was found to be 100 nM.

In the case of `O=C(Nc1ccn(-c2ccncc2)n1)C1(c2ncccc2F)CC1` [Compound 422, 1-(3-fluoro-2-pyridyl)-N-[1-(4-pyridyl)pyrazol-3-yl]cyclopropanecarboxamide], the IC50 was determined as 200 nM.

`O=C(Nc1ccn(-c2cncc(F)c2)n1)C1(c2ncccc2F)CC1` [Compound 423, 1-(3-fluoropyridin-2-yl)-N-(1-(5-fluoropyridin-3-yl)-1H-pyrazol-3-yl)cyclopropane-1-carboxamide]: the IC50 came to 46 nM.

Take `O=C(Nc1ccn(-c2cnoc2)n1)C1(c2ccccc2F)CC1` [Compound 424, 1-(2-fluorophenyl)-N-(1-(isoxazol-4-yl)-1H-pyrazol-3-yl)cyclopropane-1-carboxamide]: the IC50 is > 5000 nM.

As to `Cn1cnc(-n2ccc(NC(=O)C3(c4ccccc4F)CC3)n2)n1` [Compound 425, 1-(2-fluorophenyl)-N-[1-(1-methyl-1,2,4-triazol-3-yl)pyrazol-3-yl]cyclopropanecarboxamide], the IC50 was > 5000 nM.

Consider `Cn1cncc1-n1ccc(NC(=O)C2(c3ccccc3F)CC2)n1` [Compound 426, 1-(2-fluorophenyl)-N-[1-(3-methylimidazol-4-yl)pyrazol-3-yl]cyclopropanecarboxamide], for which the IC50 is > 2000 nM.

As for `Cn1cnnc1-n1ccc(NC(=O)C2(c3ccccc3F)CC2)n1` [Compound 427, 1-(2-fluorophenyl)-N-[1-(4-methyl-1,2,4-triazol-3-yl)pyrazol-3-yl]cyclopropanecarboxamide], the half-inhibitory concentration (IC50) was > 2000 nM.

Regarding `COc1ccc(-n2ccc(NC(=O)C3(c4ccccc4F)CC3)n2)c(OC)c1` [Compound 428], the 50% inhibitory concentration (IC50) is > 5000 nM.

`COc1cc(F)ccc1-n1ccc(NC(=O)C2(c3ccccc3F)CC2)n1` [Compound 429, N-[1-(4-fluoro-2-methoxy-phenyl)pyrazol-3-yl]-1-(2-fluorophenyl)cyclopropanecarboxamide]: the IC50 is > 5000 nM.

Take `CCOc1ccc(-n2ccc(NC(=O)C3(c4ccccc4F)CC3)n2)cn1` [Compound 430, N-[1-(6-ethoxy-3-pyridyl)pyrazol-3-yl]-1-(2-fluorophenyl)cyclopropanecarboxamide]: the IC50 is > 5000 nM.

Regarding `CNc1ncc(-n2ccc(NC(=O)C3(c4ccccc4F)CC3)n2)cc1F` [Compound 431, N-[1-[5-fluoro-6-(methylamino)-3-pyridyl]pyrazol-3-yl]-1-(2-fluorophenyl)cyclopropanecarboxamide], the half-inhibitory concentration (IC50) was 860 nM.

Take `[2H]C([2H])([2H])Oc1cc(-n2ccc(NC(=O)C3(c4ccccc4F)CC3)n2)ccn1` [Compound 439, 1-(2-fluorophenyl)-N-[1-[2-(trideuteriomethoxy)-4-pyridyl]pyrazol-3-yl]cyclopropanecarboxamide]: the IC50 stood at 80 nM.

Take `[2H]C([2H])([2H])Oc1ccc(-n2ccc(NC(=O)C3(c4ccccc4F)CC3)n2)cn1` [Compound 440, 1-(2-fluorophenyl)-N-[1-[6-(trideuteriomethoxy)-3-pyridyl]pyrazol-3-yl]cyclopropanecarboxamide]: the half-maximal inhibitory concentration (IC50) turned out to be 52 nM.

Regarding `[2H]C([2H])([2H])Oc1ncc(-n2ccc(NC(=O)C3(c4ccccc4F)CC3)n2)cc1F` [Compound 441, 1-(2-fluorophenyl)-N-[1-[5-fluoro-6-(trideuteriomethoxy)-3-pyridyl]pyrazol-3-yl]cyclopropanecarboxamide], the IC50 stood at 44 nM.

Source of the values: US20180251431A1 (VERTEX PHARMACEUTICALS INCORPORATED, priority 2016, published 2018).
